Reference: patent US12421243B2, “Pharmaceutically effective compounds inhibiting selectively the myosin 2 isoforms” (PRINTNET KERESKEDELMI ÉS SZOLGÁLTATÓ KFT., priority 2018, dated 2025)

Key:
[1] = molecular target: recombinant Dictyostelium miozin (Dictyostelium) (Dictyostelium discoideum, UniProt P08799); assay: actomyosin steady state ATPase measurement, Dictyostelium myosin; assay type: biochemical; conditions: for IC50: concentration required for semi-maximal inhibition of ATPase, read-out: IC50 (μM) Dicty; for % inhibition. complete Dicty: maximum value of inhibition of ATPase activity; for inhibition at 5 µM: read-out: % inhibition at 5 μM (or 10 μM if racemate) Dicty; for inhibition at 50 µM: read-out: % inhibition at 50 μM (or 100 μM if racemate) Dicty
From the text: (§1) […]; (ii) the concentration required for semi-maximal inhibition.

[2] = molecular target: recombinant human non-muscle myosin 2 NM2C (Homo sapiens, UniProt Q7Z406); assay: actomyosin steady state ATPase measurement, NM2C; assay type: biochemical; conditions: for IC50: concentration required for semi-maximal inhibition of ATPase; for % inhibition. complete NM2C: maximum value of inhibition of ATPase activity; for inhibition at 5 µM: read-out: % inhibition at 5 μM (or 10 μM if racemate) NM2C, 5 μM (10 μM if racemate); for inhibition at 5 µM / inhibition at 50 µM: ATPase activity; for inhibition at 50 µM: read-out: % inhibition at 50 μM (or 100 μM if racemate) NM2C, 50 μM (100 μM if racemate)
From the text: as §1

[3] = molecular target: T1, isolated porcine cardiac ventricular myocardium (cardiac) (Sus scrofa, UniProt P79293); assay: actomyosin steady state ATPase measurement, cardiac myosin; assay type: biochemical; conditions: for IC50: concentration required for semi-maximal inhibition of ATPase; for % inhibition. complete cardiac: maximum value of inhibition of ATPase activity; for inhibition at 5 µM: read-out: % inhibition at 5 μM (or 10 μM if racemate) cardiac, 5 μM (10 μM if racemate); for inhibition at 5 µM / inhibition at 50 µM: ATPase activity; for inhibition at 50 µM: read-out: % inhibition at 50 μM (or 100 μM if racemate) cardiac, 50 μM (100 μM if racemate)
T1 construct: isolated porcine cardiac ventricular myocardium (cardiac); from tissue; host or cells: porcine cardiac ventricle
From the text: as §1

[4] = tested on: isolated rabbit skeletal muscle myosin (skeletal); assay: actomyosin steady state ATPase measurement, skeletal muscle myosin; assay type: biochemical; conditions: for % inhibition at 5 μM (or 10 μM if racemate) Skeletal: 5 μM (10 μM if racemate); for % inhibition at 5 μM (or 10 μM if racemate) Skeletal / % inhibition at 50 μM (or 100 μM if racemate) Skeletal: ATPase activity; for % inhibition at 50 μM (or 100 μM if racemate) Skeletal: 50 μM (100 μM if racemate); for IC50: concentration required for semi-maximal inhibition of ATPase; for % inhibition. complete Skeletal: maximum value of inhibition of ATPase activity; for Inhibition (%) skeletal: maximum inhibition, compounds in IC50 range 1-2 μM
From the text: as §1

[5] = molecular target: isolated smooth muscle myosin (UniProt P10587); assay type: biochemical, chamois; conditions: concentration required for semi-maximal inhibition of ATPase
From the text: (ii) the concentration required for semi-maximal inhibition.

[6] = molecular target: isolated smooth muscle myosin (UniProt P10587); assay type: biochemical, chamois; conditions: for % inhibition at 5 μM (or 10 μM if racemate) Smooth: 5 μM (10 μM if racemate); for % inhibition at 5 μM (or 10 μM if racemate) Smooth / % inhibition at 50 μM (or 100 μM if racemate) Smooth: ATPase activity; for % inhibition at 50 μM (or 100 μM if racemate) Smooth: 50 μM (100 μM if racemate); for % inhibition. complete Smooth: maximum value of inhibition of ATPase activity

Sequence of isolated smooth muscle myosin (P10587 whole entry): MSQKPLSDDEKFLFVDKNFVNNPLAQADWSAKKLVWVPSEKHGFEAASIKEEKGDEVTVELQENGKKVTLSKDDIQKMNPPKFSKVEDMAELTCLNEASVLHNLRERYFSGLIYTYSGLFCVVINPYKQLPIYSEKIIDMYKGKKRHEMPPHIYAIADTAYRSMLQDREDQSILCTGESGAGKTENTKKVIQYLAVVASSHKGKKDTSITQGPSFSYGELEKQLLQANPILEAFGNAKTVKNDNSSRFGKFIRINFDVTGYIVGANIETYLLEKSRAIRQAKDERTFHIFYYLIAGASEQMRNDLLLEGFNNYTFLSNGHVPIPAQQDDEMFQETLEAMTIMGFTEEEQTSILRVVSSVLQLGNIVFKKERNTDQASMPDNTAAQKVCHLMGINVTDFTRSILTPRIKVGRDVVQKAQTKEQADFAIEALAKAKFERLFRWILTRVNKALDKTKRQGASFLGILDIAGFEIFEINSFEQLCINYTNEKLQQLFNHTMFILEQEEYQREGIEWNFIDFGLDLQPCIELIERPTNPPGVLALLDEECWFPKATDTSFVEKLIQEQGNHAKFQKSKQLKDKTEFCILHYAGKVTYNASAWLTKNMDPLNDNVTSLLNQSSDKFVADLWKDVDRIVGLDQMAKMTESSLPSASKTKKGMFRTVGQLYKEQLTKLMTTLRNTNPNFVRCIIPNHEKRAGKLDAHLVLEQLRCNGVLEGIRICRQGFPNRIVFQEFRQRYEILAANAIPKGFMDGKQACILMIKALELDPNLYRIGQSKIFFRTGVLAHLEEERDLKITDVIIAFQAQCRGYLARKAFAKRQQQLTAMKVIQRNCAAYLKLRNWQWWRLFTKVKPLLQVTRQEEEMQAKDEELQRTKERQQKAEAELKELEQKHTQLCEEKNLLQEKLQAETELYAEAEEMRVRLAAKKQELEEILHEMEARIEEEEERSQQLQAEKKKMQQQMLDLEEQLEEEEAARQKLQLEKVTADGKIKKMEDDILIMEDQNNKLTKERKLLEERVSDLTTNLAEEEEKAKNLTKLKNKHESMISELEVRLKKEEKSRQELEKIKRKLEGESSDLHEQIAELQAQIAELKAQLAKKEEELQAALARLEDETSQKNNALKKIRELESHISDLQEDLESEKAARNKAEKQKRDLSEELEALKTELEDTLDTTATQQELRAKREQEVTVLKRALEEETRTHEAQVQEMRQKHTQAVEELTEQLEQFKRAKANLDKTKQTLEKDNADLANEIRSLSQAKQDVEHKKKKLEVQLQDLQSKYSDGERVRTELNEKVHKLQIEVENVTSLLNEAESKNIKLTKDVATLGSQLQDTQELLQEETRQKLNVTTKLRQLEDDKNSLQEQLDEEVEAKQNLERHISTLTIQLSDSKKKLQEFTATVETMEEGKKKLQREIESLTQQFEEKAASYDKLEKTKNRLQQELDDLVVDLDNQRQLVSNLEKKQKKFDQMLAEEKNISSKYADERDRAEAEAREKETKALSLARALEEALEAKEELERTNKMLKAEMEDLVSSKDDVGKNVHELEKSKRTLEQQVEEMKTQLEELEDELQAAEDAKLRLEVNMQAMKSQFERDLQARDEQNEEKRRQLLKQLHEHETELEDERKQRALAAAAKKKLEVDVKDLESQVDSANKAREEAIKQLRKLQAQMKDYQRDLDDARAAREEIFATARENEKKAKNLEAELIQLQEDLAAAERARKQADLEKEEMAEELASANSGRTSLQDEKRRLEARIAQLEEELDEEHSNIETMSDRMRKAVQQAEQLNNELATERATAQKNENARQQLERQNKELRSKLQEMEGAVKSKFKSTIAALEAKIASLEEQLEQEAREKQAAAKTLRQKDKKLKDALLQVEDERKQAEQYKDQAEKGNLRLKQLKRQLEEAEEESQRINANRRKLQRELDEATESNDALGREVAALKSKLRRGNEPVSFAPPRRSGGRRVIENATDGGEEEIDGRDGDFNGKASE
Sequence of recombinant human non-muscle myosin 2 NM2C (Q7Z406 whole entry): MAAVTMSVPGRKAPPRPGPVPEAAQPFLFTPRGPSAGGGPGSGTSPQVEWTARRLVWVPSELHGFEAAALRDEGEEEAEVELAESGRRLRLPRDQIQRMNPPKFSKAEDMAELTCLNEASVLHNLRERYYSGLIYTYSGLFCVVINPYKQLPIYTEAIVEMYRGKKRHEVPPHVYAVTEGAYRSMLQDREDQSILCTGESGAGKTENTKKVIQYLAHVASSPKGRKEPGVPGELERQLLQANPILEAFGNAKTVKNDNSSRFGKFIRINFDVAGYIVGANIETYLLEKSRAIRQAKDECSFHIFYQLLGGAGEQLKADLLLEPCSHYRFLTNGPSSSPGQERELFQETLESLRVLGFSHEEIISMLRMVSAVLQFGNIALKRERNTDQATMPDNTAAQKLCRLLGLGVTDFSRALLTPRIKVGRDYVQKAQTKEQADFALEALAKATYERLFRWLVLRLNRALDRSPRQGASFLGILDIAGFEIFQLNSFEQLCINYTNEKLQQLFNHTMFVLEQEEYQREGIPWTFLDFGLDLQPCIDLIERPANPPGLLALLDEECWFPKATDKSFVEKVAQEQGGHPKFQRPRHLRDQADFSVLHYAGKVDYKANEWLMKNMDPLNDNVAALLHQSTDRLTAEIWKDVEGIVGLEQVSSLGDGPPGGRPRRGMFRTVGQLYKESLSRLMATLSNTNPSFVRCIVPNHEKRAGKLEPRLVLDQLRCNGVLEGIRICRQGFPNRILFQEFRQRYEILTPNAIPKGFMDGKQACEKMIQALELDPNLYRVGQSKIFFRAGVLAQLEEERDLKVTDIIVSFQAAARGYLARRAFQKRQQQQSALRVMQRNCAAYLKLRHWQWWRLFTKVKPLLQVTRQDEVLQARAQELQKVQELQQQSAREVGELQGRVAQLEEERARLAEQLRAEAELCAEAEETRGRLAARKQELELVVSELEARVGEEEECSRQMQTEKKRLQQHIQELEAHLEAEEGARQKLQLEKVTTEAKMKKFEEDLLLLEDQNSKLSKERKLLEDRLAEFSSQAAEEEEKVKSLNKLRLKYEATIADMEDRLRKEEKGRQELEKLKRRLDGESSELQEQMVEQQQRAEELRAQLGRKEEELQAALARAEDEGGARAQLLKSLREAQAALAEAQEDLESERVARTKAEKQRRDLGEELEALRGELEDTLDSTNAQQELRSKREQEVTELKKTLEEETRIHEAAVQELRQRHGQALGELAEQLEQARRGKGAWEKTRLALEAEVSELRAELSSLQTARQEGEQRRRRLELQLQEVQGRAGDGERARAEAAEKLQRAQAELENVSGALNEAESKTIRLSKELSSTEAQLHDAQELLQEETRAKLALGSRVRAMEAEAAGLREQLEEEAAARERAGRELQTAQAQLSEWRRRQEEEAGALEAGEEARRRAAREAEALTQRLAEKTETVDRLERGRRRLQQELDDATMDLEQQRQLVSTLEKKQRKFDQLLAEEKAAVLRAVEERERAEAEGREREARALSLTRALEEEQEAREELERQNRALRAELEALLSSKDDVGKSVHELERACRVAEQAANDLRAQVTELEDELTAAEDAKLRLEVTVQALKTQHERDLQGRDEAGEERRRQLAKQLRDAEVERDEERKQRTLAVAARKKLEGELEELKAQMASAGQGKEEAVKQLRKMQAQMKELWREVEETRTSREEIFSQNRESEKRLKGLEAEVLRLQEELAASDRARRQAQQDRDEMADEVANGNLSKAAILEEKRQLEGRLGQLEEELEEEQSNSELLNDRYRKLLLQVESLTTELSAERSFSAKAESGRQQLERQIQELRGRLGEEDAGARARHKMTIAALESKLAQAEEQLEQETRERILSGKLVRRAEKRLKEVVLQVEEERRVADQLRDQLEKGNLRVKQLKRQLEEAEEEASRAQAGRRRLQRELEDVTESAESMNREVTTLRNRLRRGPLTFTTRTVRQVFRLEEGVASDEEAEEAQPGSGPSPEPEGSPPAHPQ

With `O=C1c2ccsc2N=C2N(c3ccc(OC(F)(F)F)cc3)CC[C@@]12O` [Compound 212, (9S)-9-hydroxy-12-[4-(trifluoromethoxy)phenyl]-4-thia-2,12-diazatricyclo[7.3.0.0^3,7]dodeca-1,3(7),5-trien-8-one] the IC50 [1] was 10.9 µM, the “Inhibition (%) Dicty” value ([1]; maximum inhibition, compounds in IC50 range 1-11 μM) was 84% and the “% inhibition. complete Dicty” value [1] was 84%. For the same molecule, the inhibition at 5 µM [1] was 26%, the inhibition at 50 µM [1] was 69% and the IC50 [2] was 6.4 µM. For the same molecule, the “% inhibition. complete NM2C” value [2] was 61%, the inhibition at 5 µM [2] was 19% and the inhibition at 50 µM [2] was 56%. The IC50 [3] was 5.9 µM, the “% inhibition. complete cardiac” value [3] was 100% and the inhibition at 5 µM [3] was 43%. For the same molecule, the inhibition at 50 µM [3] was 93%, the “% inhibition at 5 μM (or 10 μM if racemate) Skeletal” value [4] was 94% and the “% inhibition at 50 μM (or 100 μM if racemate) Skeletal” value [4] was 97%. For the same molecule, the IC50 [4] was 0.19 µM, the “% inhibition. complete Skeletal” value [4] was 98% and the IC50 [5] was 10.4 µM. For the same molecule, the “% inhibition at 5 μM (or 10 μM if racemate) Smooth” value [6] was 24%, the “% inhibition at 50 μM (or 100 μM if racemate) Smooth” value [6] was 61% and the “% inhibition. complete Smooth” value [6] was 74%.
In the case of `N#CCc1ccc(N2CC[C@@]3(O)C(=O)c4ccsc4N=C23)cc1` [Compound 215, (9S)-2-(4-{9-Hydroxy-8-oxo-4-thia-2,12-diazatricyclo[7.3.0.0^3,7]dodeca-1,3(7),5-trien-12-yl}phenyl)acetonitrile], the IC50 [1] was 12.1 µM, the “% inhibition. complete Dicty” value [1] was 78% and the inhibition at 5 µM [1] was 23%. The inhibition at 50 µM [1] was 63%, the IC50 [2] was 19 µM and the “% inhibition. complete NM2C” value [2] was 77%. The inhibition at 5 µM [2] was 16%, the inhibition at 50 µM [2] was 56% and the IC50 [3] was 5.6 µM. For the same molecule, the “% inhibition. complete cardiac” value [3] was 94%, the inhibition at 5 µM [3] was 42% and the inhibition at 50 µM [3] was 84%. For the same molecule, the “% inhibition at 5 μM (or 10 μM if racemate) Skeletal” value [4] was 80%, the “% inhibition at 50 μM (or 100 μM if racemate) Skeletal” value [4] was 96% and the IC50 [4] was 1.1 µM. The “% inhibition. complete Skeletal” value [4] was 98%, the IC50 [5] was 2.3 µM and the “% inhibition at 5 μM (or 10 μM if racemate) Smooth” value [6] was 31%. For the same molecule, the “% inhibition at 50 μM (or 100 μM if racemate) Smooth” value [6] was 45%, the “Inhibition (%) smooth” value ([6]; maximum inhibition, compounds in IC50 range 1-5 μM) was 47% and the “% inhibition. complete Smooth” value [6] was 47%.
`O=C1c2ccsc2N=C2N(c3ccc(CO)cc3)CC[C@@]12O` [Compound 216, (9S)-9-Hydroxy-12-[4-(hydroxymethyl)phenyl]-4-thia-2,12-diazatricyclo[7.3.0.0^3,7]dodeca-1,3(7),5-trien-8-one] was tested, and the IC50 [1] was 13.3 µM, the “% inhibition. complete Dicty” value [1] was 74% and the inhibition at 5 µM [1] was 20%. For the same molecule, the inhibition at 50 µM [1] was 58%, the IC50 [2] was 23 µM and the “% inhibition. complete NM2C” value [2] was 75%. The inhibition at 5 µM [2] was 13%, the inhibition at 50 µM [2] was 51% and the IC50 [3] was 2.4 µM. The “% inhibition. complete cardiac” value [3] was 89%, the inhibition at 5 µM [3] was 58% and the inhibition at 50 µM [3] was 85%. The “% inhibition at 5 μM (or 10 μM if racemate) Skeletal” value [4] was 74%, the “% inhibition at 50 μM (or 100 μM if racemate) Skeletal” value [4] was 95% and the IC50 [4] was 1.6 µM. For the same molecule, the “Inhibition (%) skeletal” value [4] was 98%, the “% inhibition. complete Skeletal” value [4] was 98% and the IC50 [5] was 8.3 µM. The “% inhibition at 5 μM (or 10 μM if racemate) Smooth” value [6] was 17%, the “% inhibition at 50 μM (or 100 μM if racemate) Smooth” value [6] was 39% and the “% inhibition. complete Smooth” value [6] was 46%.
`O=C1c2ccsc2N=C2N(c3cccs3)CC[C@@]12O` [Compound 218, (9S)-9-Hydroxy-12-(thiophen-2-yl)-4-thia-2,12-diazatricyclo[7.3.0.0^3,7]dodeca-1,3(7),5-trien-8-one] was tested, and the IC50 [1] was 78 µM, the “% inhibition. complete Dicty” value [1] was 100% and the inhibition at 5 µM [1] was 4%. For the same molecule, the inhibition at 50 µM [1] was 39%, the IC50 [2] was 44 µM and the “% inhibition. complete NM2C” value [2] was 20%. For the same molecule, the inhibition at 5 µM [2] was 2%, the inhibition at 50 µM [2] was 11% and the IC50 [3] was 2.7 µM. The “% inhibition. complete cardiac” value [3] was 79%, the inhibition at 5 µM [3] was 49% and the inhibition at 50 µM [3] was 75%. For the same molecule, the “% inhibition at 5 μM (or 10 μM if racemate) Skeletal” value [4] was 50%, the “% inhibition at 50 μM (or 100 μM if racemate) Skeletal” value [4] was 85% and the IC50 [4] was 4.2 µM. The “% inhibition. complete Skeletal” value [4] was 92%, the IC50 [5] was 8.1 µM and the “% inhibition at 5 μM (or 10 μM if racemate) Smooth” value [6] was 10%. For the same molecule, the “% inhibition at 50 μM (or 100 μM if racemate) Smooth” value [6] was 24% and the “% inhibition. complete Smooth” value [6] was 28%.
`COc1ccc(N2CC[C@@]3(O)C(=O)c4ccsc4N=C23)cn1` [Compound 219, (9S)-9-Hydroxy-12-(6-methoxypyridin-3-yl)-4-thia-2,12-diazatricyclo[7.3.0.0^3,7]dodeca-1,3(7),5-trien-8-one] was tested, and the IC50 [1] was 43 µM, the “% inhibition. complete Dicty” value [1] was 100% and the inhibition at 5 µM [1] was 6%. For the same molecule, the inhibition at 50 µM [1] was 56%, the IC50 [2] was 8.1 µM and the “% inhibition. complete NM2C” value [2] was 21%. For the same molecule, the inhibition at 5 µM [2] was 8%, the inhibition at 50 µM [2] was 18% and the IC50 [3] was 4.1 µM. The “Inhibition (%) cardiac” value ([3]; maximum inhibition, compounds in IC50 range 3-6 μM) was 84%, the “% inhibition. complete cardiac” value [3] was 84% and the inhibition at 5 µM [3] was 44%. The inhibition at 50 µM [3] was 78%, the “% inhibition at 5 μM (or 10 μM if racemate) Skeletal” value [4] was 69% and the “% inhibition at 50 μM (or 100 μM if racemate) Skeletal” value [4] was 91%. The IC50 [4] was 1.8 µM, the “Inhibition (%) skeletal” value [4] was 94% and the “% inhibition. complete Skeletal” value [4] was 94%. For the same molecule, the IC50 [5] was 6.9 µM, the “% inhibition at 5 μM (or 10 μM if racemate) Smooth” value [6] was 15% and the “% inhibition at 50 μM (or 100 μM if racemate) Smooth” value [6] was 32%. The “% inhibition. complete Smooth” value [6] was 36%.
